Columns and labels:
Assay in all cases: relative viability (nuclei count vs DMSO), 5 days (fraction); higher = more cells survive
MLN4924 + Vorinostat = compound: NS(=O)(=O)OC[C@@H]1C[C@@H](n2ccc3c(N[C@H]4CCc5ccccc54)ncnc32)C[C@@H]1O [MLN4924] + O=C(CCCCCCC(=O)Nc1ccccc1)NO [Vorinostat] (partner 1 µM)
Summary of the method: (§1)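 The day after seeding in 1536-well plates, lung cancer cell lines were treated by pin tool with a single drug, or with a fixed anchor-drug dose together with five library-drug doses (not always all listed) in √10 steps. After 5 days, a combined fix-and-stain solution (final 0.05% Triton X-100, 1% formaldehyde, 1 ug/ml Hoechst) was added. Nuclei counted on 4× images gave relative viability as treated counts over vehicle counts, reported as the median of duplicate plates.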

GSK126 + Decitabine = compound: CC[C@H](C)N1C=C(C2=C(C=C(C=C21)C3=CN=C(C=C3)N4CCNCC4)C(=O)NCC5=C(C=C(NC5=O)C)C)C [GSK126] + Nc1ncn([C@H]2C[C@H](O)[C@@H](CO)O2)c(=O)n1 [Decitabine] (partner 2 µM)
Summary of the method: as §1

GSK126 + Vorinostat = compound: CC[C@H](C)N1C=C(C2=C(C=C(C=C21)C3=CN=C(C=C3)N4CCNCC4)C(=O)NCC5=C(C=C(NC5=O)C)C)C [GSK126] + O=C(CCCCCCC(=O)Nc1ccccc1)NO [Vorinostat] (partner 1 µM)
Summary of the method: as §1

GSK126 + Crizotinib = compound: CC[C@H](C)N1C=C(C2=C(C=C(C=C21)C3=CN=C(C=C3)N4CCNCC4)C(=O)NCC5=C(C=C(NC5=O)C)C)C [GSK126] + C[C@@H](Oc1cc(-c2cnn(C3CCNCC3)c2)cnc1N)c1c(Cl)ccc(F)c1Cl [Crizotinib] (partner 1 µM)
Summary of the method: as §1

Cell Line	relative viability (MLN4924 + Vorinostat; first compound 0.04 µM)	relative viability (MLN4924 + Vorinostat; first compound 0.1265 µM)	relative viability (MLN4924 + Vorinostat; first compound 0.4 µM)	relative viability (MLN4924 + Vorinostat; first compound 1.265 µM)	relative viability (MLN4924 + Vorinostat; first compound 4 µM)	relative viability (GSK126 + Decitabine; first compound 0.08 µM)	relative viability (GSK126 + Decitabine; first compound 0.253 µM)	relative viability (GSK126 + Decitabine; first compound 0.8 µM)	relative viability (GSK126 + Decitabine; first compound 2.53 µM)	relative viability (GSK126 + Decitabine; first compound 8 µM)	relative viability (GSK126 + Vorinostat; first compound 0.08 µM)	relative viability (GSK126 + Vorinostat; first compound 0.253 µM)	relative viability (GSK126 + Vorinostat; first compound 0.8 µM)	relative viability (GSK126 + Vorinostat; first compound 2.53 µM)	relative viability (GSK126 + Vorinostat; first compound 8 µM)	relative viability (GSK126 + Crizotinib; first compound 0.08 µM)	relative viability (GSK126 + Crizotinib; first compound 0.253 µM)	relative viability (GSK126 + Crizotinib; first compound 0.8 µM)	relative viability (GSK126 + Crizotinib; first compound 2.53 µM)	relative viability (GSK126 + Crizotinib; first compound 8 µM)
HCC-366	0.327	0.348	0.322	0.0422	0.0392	0.34	0.34	0.336	0.463	0.338	0.389	0.354	0.29	0.342	0.385	0.652	0.548	0.549	0.475	0.431
LCLC-97TM1	0.742	0.503	0.0752	0.0454	0.0589	0.237	0.257	0.218	0.24	0.253	0.771	0.8	0.717	0.812	0.691	0.337	–	0.42	0.475	0.441
NCI-H2405	0.861	0.849	0.411	0.181	0.19	0.757	0.66	0.71	0.747	0.729	1.12	0.933	1.01	1.05	1.04	0.947	0.753	0.816	0.817	0.814
NCI-H1915	0.52	0.503	0.339	0.149	0.143	0.277	0.262	0.262	0.256	0.252	0.602	0.474	0.542	0.5	0.54	1.02	0.93	0.917	0.878	0.912
NCI-H650	0.446	0.306	0.169	0.126	0.143	0.33	0.293	0.311	0.299	0.322	0.482	0.412	0.411	0.403	0.487	0.912	0.741	0.658	0.755	0.594
NCI-H1650	0.411	0.352	0.22	0.109	0.176	0.437	0.541	0.522	0.402	0.495	0.678	0.546	0.605	0.431	0.681	0.886	1.03	0.917	0.826	0.888
NCI-H596	0.471	0.597	0.601	0.382	0.418	1.09	0.882	1.04	1.05	1.06	0.613	0.55	0.746	0.577	0.502	1.04	0.98	0.863	1.06	0.891
HCC-44	1.04	0.731	0.726	0.415	0.376	0.918	1.06	1.06	0.89	0.971	1.15	1.15	1.05	1.08	1.15	0.766	0.864	0.788	0.64	0.78
NCI-H2087	0.784	0.43	0.135	0.0537	0.125	0.246	0.272	0.269	0.293	0.346	0.847	0.523	0.652	0.652	1.15	0.861	0.985	0.888	0.821	0.867
RERF-LC-KJ	0.579	0.328	0.205	0.192	0.236	0.717	0.731	0.715	0.735	0.779	0.747	0.791	0.654	0.716	0.827	0.841	0.896	0.826	0.785	0.838
NCI-H2126	0.814	0.869	0.555	0.237	0.267	0.567	0.591	0.609	0.622	0.593	0.867	0.789	0.829	0.805	0.783	1.07	1.04	1.05	0.992	0.987
SK-LU-1	0.581	0.425	0.161	0.196	0.244	0.711	0.535	0.6	0.928	0.708	0.852	0.684	0.781	0.776	0.905	1.01	0.935	0.949	1.13	1.06
HARA	0.48	0.144	0.174	0.0809	0.0682	0.628	0.629	0.403	0.519	0.402	0.554	0.47	0.551	0.51	0.41	1.13	0.986	1.01	1.12	0.817
EPLC-272H	0.195	0.184	0.098	0.0963	0.144	0.441	0.349	0.39	0.358	0.361	0.346	0.342	0.344	0.29	0.511	1.07	0.843	0.909	0.719	0.789
SK-MES-1	1.14	1.02	0.351	0.162	0.216	0.41	0.463	0.418	0.391	0.431	1.12	1.19	1.04	1.04	1.13	1.01	0.971	0.931	0.925	1.05
COR-L 105	0.71	0.709	0.353	0.232	0.403	0.591	0.629	0.653	0.575	0.667	0.963	0.828	0.639	0.826	0.68	0.859	0.935	0.783	0.687	0.62
